Molecules are shown by their SMILES. Marks after values point to notes of the source that are not given here.

Common to all, as to type: cell-based
The test system of test [1] is TRAF6 mRNA in RAW264.7 cells. Description: RT-PCR, RANKL-induced mRNA expression of TRAF6. Conditions: for RANKL-induced mRNA expression level of TRAF6: RAW264.7 cells, 24 hours, CTL 100%, mean ± SEM. An excerpt:
(§1) The culture medium was discarded. […] [table] f) Running • A.

In test [2] the test system is JNK phosphorylation in RAW264.7 cells. Description: Western blot, phosphorylation of JNK induced by RANKL. Conditions: 7.5 μM and 10 μM, RANKL 15 minutes, FIG. 10. As for the experimental part:
MAP kinases including ERK, JNK and p38 are stimulated by RANKL to be phosphorylized and further influence the down-stream key transcription factors which induce the differentiation of osteoclast-like cells such as c-Fos, NFATc1, etc. Before estimating the drug effect, 10 ng/ml RANKL are used to induce the phosphorylation of ERK, JNK and p38 at different time points. […] It is shown that KMUP-1 can reduce the activation of MAP kinases induced by RANKL. […] The proteins were collected by scraping and were centrifuged (13,000 rpm, 4° C., 30 minutes). The supernatant was stored in an eppendorf in −80° C. • c) Concentrations of the proteins were examined by Bio-Red DC Protein Assay. After knowing the concentrations, the proteins were diluted to specific concentrations by adding ddH2O. One forth volume of the diluted proteins of sample buffer was added into the diluted proteins and was put in boiled water for 5 min and then was chilled on ice for 5 minutes. After short time centrifugation, the diluted proteins could be injected into wells of a gel. The gel was run at 100 V for 10 minutes until the proteins were driven to the intersection between a loading gel and a running gel. Then, the voltage was swopped to 200 V for 40 minutes. • d) A PVDF membrane was immersed in Methanol for 2 minutes. After two washes in ddH2O, the membrane was immersed in transfer buffer for 15 minutes. […]
For orientation: A western blot detects proteins with antibodies after separation by electrophoresis.

For test [3], the system named is c-Fos mRNA in RAW264.7 cells. As to the kind of experiment: RT-PCR, RANKL-induced mRNA expression of c-Fos. Particulars: for RANKL-induced mRNA expression level of c-Fos: RAW264.7 cells, 24 hours, CTL 100%, mean ± SEM.
Source text: as §1

The test system of test [4] is RAW264.7 cells. Description: MTT assay, proliferation induced by RANKL. Particulars: RAW264.7, 5 μM, 7.5 μM, 10 μM, FIG. 1. (Tetrazolium dyes change colour on reduction, which living cells bring about.)
Protocol: Cells were plated onto 96-well plates at a density of 10^3 cells per well. After 24 hours incubation, the different concentrations of the different drugs were administrated into the plates. […] Subsequently, the medium was removed, and 100 μl/well isopropanol was added to solved formazan. The plates were shaken for 15 minutes and stood for 15 minutes, and then the absorbance was measured at wavelength of 540 nm and 630 nm. The ratio of the absorbance of treated cells relative to that of the control cells was calculated and expressed as a percentage of cell survival.
Test [5] deals with HMGB1 in RAW264.7 cells. Description: Western blot, RANKL-induced transfer of HMGB1 from nucleus to extracellular space. Conditions: 5 μM, 7.5 μM and 10 μM for 24 hours, 10 ng/ml RANKL 18 hours, dose dependent, FIGS. 22(B), 23(B), 24(B). On the procedure: HMGB1 can affect the proliferation and differentiation of osteoclasts, the HMGB1 which originally exists in a cell nuclear is stimulated by RANKL to transfer to cytoplasm or extracellular space, and the HMGB1 in the extracellular space like pro-inflammatory cytokines can regulate the proliferation and differentiation of osteoclasts via RANK/RANKL pathway or other pathways. 10 ng/ml RANKL is used to stimulate RAW264.7 cells, and the extracellular medium, cytoplasm and nucleus are separated at 0 hours, 6 hours, 12 hours, 18 hours and 24 hours, and then via western blot to confirm the expression level of the HMGB1. After stimulating 24 hours, the HMGB1 obviously transfers to the extracellular space from the nucleus and the cytoplasm (FIGS. 22(A), 23(A), and 24(A)). Moreover, when it is stimulated by RANKL for 18 hours, the effect of transferring to the extracellular space and the cytoplasm is most obvious. Different concentrations of KMUP-1 are administrated for 24 hours, and 10 ng/ml RANKL is used to stimulate for 18 hours. […] Nuclear proteins were extracted according to the instructions of NE-PER kit. 2.5×10^6 cells were plated per well in 24-well plates. […] Subsequently, the cells were added by 5.5 μ[…] and shaken for 5 seconds and then put on ice for 1 minute. After that, the cells were shaken again for 5 seconds and centrifuged (10,000 rpm, 4° C., 5 minutes). […]

Test [6] relates to osteoclast-like cells. Description: Pit formation assay (dissolution of osteoclast-like cells). Particulars: calcium phosphate coated plates, 10 ng/ml RANKL for five days, different concentrations, FIG. 5. As for the experimental part: In order to confirm the influence of KMUP-1 to the bone dissolution of differentiated osteoclast-like cells, cells are cultured in the plates which are coated calcium phosphate of bone-like matrix in the bottom and are given 10 ng/ml RANKL for five days and different concentration of KMUP-1. According to the result, compared with the control group, in the group which is given 10 ng/ml RANKL alone for 5 days, the osteoclast-like cells have obviously dissolution activity, so the covers at the plate bottom present many holes. […] Subsequently, 100 μl medium with 1,000 cells were added into each well, and the total volume was 300 μl/well. The slides were incubated for 5 days, and the medium and the drugs were renewed every 2 days. After 5 days, the medium was removed, and the cells were washed by ddH2O 3 times. Subsequently, the cells were covered by Bleach solution for staining 5 minutes and then were washed by ddH2O for 5 times. After drying, the cells were took a photo by an optical microscopy (40× and 200×), and Autopano Pro V1.4.2, Kolor, Paris, was used to proceed the pictures taken in 40×.

Setting [7] is: 10 ng/ml RANKL, summary of Table 1.

As for `Cn1c(=O)c2c(ncn2CCN2CCN(c3ccccc3Cl)CC2)n(C)c1=O` [KMUP-1, 7-[2-[4-(2-Chlorophenyl)piperazin-1-yl]ethyl] theophylline], in test [1] (setting [7]), the “effect on mRNA expression of TRAF6 induced by RANKL (in words)” value is listed as “not obviously inhibits”. The “RANKL-induced mRNA expression level of TRAF6” value in test [1] (RANKL 10 ng/ml + KMUP-1 1 μM) amounted to 100.2 ± 4.7%; in test [1] (RANKL 10 ng/ml + KMUP-1 2.5 μM), 123.8 ± 2.3%; in test [1] (RANKL 10 ng/ml + KMUP-1 5 μM), 125.9 ± 2.9% ^; in test [1] (RANKL 10 ng/ml + KMUP-1 7.5 μM), 128.4 ± 6.5% ^; in test [1] (RANKL 10 ng/ml + KMUP-1 10 μM), 127.2 ± 1.3% ^. In addition, the “phosphorylation of JNK induced by RANKL” value in test [2] was “can efficiently inhibit the phosphorylation of ERK, JNK and p38 induced by RANKL”. The “effect on mRNA expression of c-Fos induced by RANKL (in words)” value in test [3] (setting [7]) is “inhibits the mRNA expression”. For the same molecule, the “RANKL-induced mRNA expression level of c-Fos” value in test [3] (RANKL 10 ng/ml + KMUP-1 1 μM) is on record as 105.4 ± 8.1%; in test [3] (RANKL 10 ng/ml + KMUP-1 2.5 μM), 100.3 ± 4.7%; in test [3] (RANKL 10 ng/ml + KMUP-1 5 μM), 84.5 ± 5.2% ^b; in test [3] (RANKL 10 ng/ml + KMUP-1 7.5 μM), 67.1 ± 4.5% ^b; in test [3] (RANKL 10 ng/ml + KMUP-1 10 μM) it was 73.1 ± 6.3% ^b. Further, in test [4], the “cell proliferation induced by RANKL (MTT assay)” value is “can inhibit the cell proliferation induced by RANKL”. Also, the “RANKL-induced transfer of HMGB1 to extracellular space from cell nucleus” value in test [5] was “can inhibit that RANKL induces HMGB1 to transfer to extracellular space from a cell nuclear”. Moreover, the “dissolution of osteoclast-like cells (dissolution area)” value in test [6] was “can inhibit the dissolution of osetocalst-like cells”.

The values above are taken from patent publication US8507506B2, “Theophylline derivative inhibits osteoporosis” (Kaohsiung Medical University, priority 2011, dated 2013).
